Source: article PMC8691714 (Cancer Research Communications, 2021)

Columns and labels:
OCT3 = biological target: T1, OCT3 (Homo sapiens, UniProt O75751); assay: In vitro transport assay, cells overexpressing OCT3; assay type: cell-based; settings: OCT3 vs empty vector; 15 minutes
T1 construct: expressed in transfected cells; compared with empty vector control
T1 sequence (O75751 1-556): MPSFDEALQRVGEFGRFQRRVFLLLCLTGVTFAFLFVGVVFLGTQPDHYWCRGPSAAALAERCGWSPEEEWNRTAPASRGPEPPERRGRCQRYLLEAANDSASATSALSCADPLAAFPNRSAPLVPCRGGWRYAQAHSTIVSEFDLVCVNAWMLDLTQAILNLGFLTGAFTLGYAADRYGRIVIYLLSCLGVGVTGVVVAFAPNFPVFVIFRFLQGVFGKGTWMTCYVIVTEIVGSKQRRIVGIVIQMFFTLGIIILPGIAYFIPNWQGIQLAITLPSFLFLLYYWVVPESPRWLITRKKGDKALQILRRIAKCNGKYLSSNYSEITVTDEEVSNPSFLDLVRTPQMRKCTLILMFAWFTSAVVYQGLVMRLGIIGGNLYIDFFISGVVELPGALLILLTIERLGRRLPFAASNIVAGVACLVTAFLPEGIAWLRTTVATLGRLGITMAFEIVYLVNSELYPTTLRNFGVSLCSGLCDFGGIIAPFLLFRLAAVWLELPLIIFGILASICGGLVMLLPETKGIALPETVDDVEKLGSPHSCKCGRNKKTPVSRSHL

Caco-2 = tested on: Caco-2; set-up: method as in earlier work; settings: PBPK model parameter; ref [17, 18] and Drugbank; cited from earlier work
TMD8 cells = assay: MTT viability assay, TMD8 cells, 72 hours; assay type: cell-based, human; settings: Homo sapiens, TMD8, 72 h, MTT
Protocol: Cell viability was assessed after 72 hours of incubation.

[1] = cited from earlier work
[2] = Cardiac distribution of ibrutinib in mice (heart-to-plasma ratio); settings: female wild-type mice; six hours after ibrutinib 10 mg/kg orally; cobicistat 30 mg/kg pretreatment vs vehicle; P < 0.01
[3] = set-up: method as in earlier work; settings: PBPK model parameter, ref [17, 18] and Drugbank, cited from earlier work

uptake of ibrutinib by transporter-overexpressing cells (OCT3)	heart levels of ibrutinib normalized to plasma levels [2]	Structure (SMILES)	Caco-2 (Caco-2) [×10⁻⁶ cm/s]	IC50 (TMD8 cells; None (Fig. 2A, ketoconazole panel)) [nM]	IC50 (TMD8 cells; None (Fig. 2B, cobicistat panel)) [nM]	IC50 (TMD8 cells; with 0.1 μmol/L cobi) [nM]	IC50 (TMD8 cells; with 0.1 μmol/L keto) [nM]	IC50 (TMD8 cells; with 1 μmol/L cobi) [nM]	IC50 (TMD8 cells; with 1 μmol/L keto) [nM]	IC50 (TMD8 cells; with 10 μmol/L cobi) [nM]	IC50 (TMD8 cells; with 10 μmol/L keto) [nM]	experimentally observed increase in ibrutinib exposure ([1]; itraconazole-ibrutinib interaction, ref [8]) [fold]	increase in ibrutinib exposure predicted from a pharmacokinetic model ([1]; itraconazole-ibrutinib interaction, ref [23]) [fold]	oral bioavailability ([1]; patients, ref [4, 5]) [%]	Clpo ([3]; oral clearance)	Vss ([3]; steady-state volume of distribution) [L/kg]
not substantially facilitated	substantially lower levels	C=CC(=O)N1CCC[C@@H](n2nc(-c3ccc(Oc4ccccc4)cc3)c3c(N)ncnc32)C1 [Ibrutinib]	32.6	1.4	1.4	1.3	1.1	1.1	1	0.82	0.88	10	21	< 3		
		Nc1ncnc2c1c(-c1ccc(Oc3ccccc3)cc1)nn2[C@@H]1CCCN(C(=O)C(O)CO)C1 (stereo partly shown) [PCI-45227]													Clpo (L/h) : 433	9.0
